Paper PMC3583241, “Hit identification of IKKβ natural product inhibitor” (BMC Pharmacology & Toxicology, 2013)

Target: T1, IKKβ (Homo sapiens, UniProt O14920)
T1 construct: gene IKBKB; human recombinant IKKβ
T1 sequence (O14920 1-756): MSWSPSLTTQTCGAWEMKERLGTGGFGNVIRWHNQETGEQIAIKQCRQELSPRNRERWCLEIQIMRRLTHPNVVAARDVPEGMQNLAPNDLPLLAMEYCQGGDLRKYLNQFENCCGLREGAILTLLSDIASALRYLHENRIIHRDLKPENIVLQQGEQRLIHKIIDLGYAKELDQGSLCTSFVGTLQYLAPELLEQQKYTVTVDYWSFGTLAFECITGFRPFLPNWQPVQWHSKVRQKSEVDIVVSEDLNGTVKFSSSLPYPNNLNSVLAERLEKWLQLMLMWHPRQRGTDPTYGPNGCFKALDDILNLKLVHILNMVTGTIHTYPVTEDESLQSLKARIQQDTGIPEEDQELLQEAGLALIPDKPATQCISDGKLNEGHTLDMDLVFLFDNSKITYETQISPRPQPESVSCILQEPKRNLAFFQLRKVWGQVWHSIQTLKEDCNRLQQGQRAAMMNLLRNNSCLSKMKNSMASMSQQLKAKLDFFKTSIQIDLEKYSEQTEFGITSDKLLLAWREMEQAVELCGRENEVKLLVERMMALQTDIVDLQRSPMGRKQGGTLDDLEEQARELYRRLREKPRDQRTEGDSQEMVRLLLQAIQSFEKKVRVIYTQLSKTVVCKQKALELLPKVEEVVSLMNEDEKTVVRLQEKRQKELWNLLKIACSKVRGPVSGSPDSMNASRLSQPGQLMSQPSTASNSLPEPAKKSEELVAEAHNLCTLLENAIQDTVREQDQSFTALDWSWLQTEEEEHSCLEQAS
Test: ELISA-based K-LISA IKKβ kinase assay with GST-IκBα substrate
Format: biochemical

## O=C(O)c1ccccc1C(=O)NCCC(c1ccccc1)c1ccco1 (stereo not shown) [compound 1, benzoic acid derivative (1)]
  IC50: ~50 µM
